The source of these data is the OPERA property sets (Mansouri et al. 2018).

Usually melting point stands for the temperature, or range, at which the solid turns liquid. As a reminder, the boiling point is the temperature at which the vapour pressure of the liquid equals the pressure above it.

Conditions in one data set: not given
For `CC(C)C1(C)N=C(c2nc3ccccc3cc2C(=O)O)NC1=O` (stereo unspecified), the log10 Koc (L/kg) worked out at 1.3, the melting point stood at 221 °C and the ready biodegradability entry was “not readily biodegradable”.
`CCCCCCCC(=O)NO` gave a melting point of 78.8 °C.
Same read-out and setting: the same measure for `O=CC=Cc1ccc([N+](=O)[O-])o1`: 118 °C.
`COC(=O)CC(=O)C(C)(C)C`: the ready biodegradability entry was “not readily biodegradable”.
As for `O=c1occc2ccccc12`, the boiling point was determined as 286 °C and the melting point came to 47 °C.
For the molecule `CCCCCCCCCCCCCCCCCCCCCC(=O)OCC`, the melting point came out at 50 °C.
The same measure, in the same setting: under `CCN(CC)c1ccc(N=O)cc1` stands 87.5 °C.
Molecule `CCCc1cc(C(N)=S)ccn1` returned a melting point of 137 °C.
For `CN(CCO)CCO`, the boiling point was 247 °C, the log10 vapour pressure (mmHg) is -3.7, the melting point is -21 °C and the ready biodegradability entry is given as “not readily biodegradable”.
Regarding `C/C=C/C=C/C=O`, the boiling point was determined as 174 °C and the log10 Henry constant (atm·m³/mol) is -5.01.
As for `CCCCCCCCOC(=O)c1ccccc1C(=O)OCCCCCCCC`, the log10 Koc (L/kg) turned out to be 4.38, the log10 vapour pressure (mmHg) is -7 and the ready biodegradability result is listed as “readily biodegradable”.
`FC(F)C(F)(F)OCC(F)(F)F`: the boiling point is 56.2 °C and the log10 vapour pressure (mmHg) came to 2.33.
Consider `CCc1ccccc1Nc1ccccc1CC`, for which the melting point was 29 °C.
For the molecule `O=C1NC(=O)C2CC=CCC12` (stereo unspecified), the ready biodegradability entry was “not readily biodegradable”.
In turn, `Nc1nc(=O)[nH]cc1F` gave a melting point of 296 °C.
Turning to `FC(F)(F)c1ccccc1`, the boiling point worked out at 102 °C, the log10 vapour pressure (mmHg) was determined as 1.59, the melting point is -29.1 °C and the ready biodegradability result is reported as “not readily biodegradable”.
With `N#CCCNCCC#N`, the ready biodegradability entry is “not readily biodegradable”.
The molecule `CC(C)NCC(O)COc1cccc2ccccc12.Cl` (stereo unspecified) returned a melting point of 164 °C.
With `FC(Cl)C(Cl)(Cl)Cl` (stereo unspecified), the boiling point came to 116 °C and the melting point was -95.3 °C.
Turning to `COc1cc2c(c(O)c1OC)CCN(C)[C@H]2C`, the melting point stood at 152 °C.
For the molecule `CCCN(CCC)N=O`, the boiling point turned out to be 206 °C and the ready biodegradability result is on record as “not readily biodegradable”.
Turning to `CC(C)C[N+](=O)[O-]`, the boiling point turned out to be 140 °C, the log10 vapour pressure (mmHg) was determined as 0.838 and the melting point is -76.8 °C.
On to `C=CC=O`, for which the boiling point came out at 52.6 °C, the log10 Henry constant (atm·m³/mol) is -3.91, the log10 vapour pressure (mmHg) came out at 2.44 and the melting point is -87.7 °C. The ready biodegradability entry is recorded as “not readily biodegradable”.
In turn, `FC(F)(F)c1nc2c(Cl)c(Cl)ccc2[nH]1` gave a melting point of 214 °C.
Regarding `CNC(=O)Oc1c(C(C)(C)C)cc(C)cc1C(C)(C)C`, the ready biodegradability result was “not readily biodegradable”.
As for `BrCCCCBr`, the boiling point was 197 °C, the log10 vapour pressure (mmHg) is -0.211 and the melting point was -16.5 °C.
As for `FC(F)(F)C1(F)C(F)(F)C(F)(C(F)(F)F)C(F)(F)C(F)(C(F)(F)F)C1(F)F` (stereo unspecified), the boiling point turned out to be 125 °C.
As for `CI`, the boiling point is 42.5 °C, the log10 Henry constant (atm·m³/mol) was -2.28, the log10 Koa was 2.16 and the log10 vapour pressure (mmHg) worked out at 2.61. The melting point was -66.4 °C.
`CCP(c1ccccc1)c1ccccc1` returned a boiling point of 293 °C.
Turning to `O=C(O)c1c(F)ccc(F)c1F`, the melting point is 130 °C.
Turning to `Oc1cc2ccccc2cc1O`, the melting point amounted to 162 °C.
For `ClCOCCl`, the boiling point is 106 °C, the log10 vapour pressure (mmHg) turned out to be 1.47 and the melting point is -41.5 °C.
`CC[C@H]1O[C@]2(CC[C@@H]1C)C[C@@H]1C[C@@H](CC=C(C)C[C@@H](C)C=CC=C3CO[C@@H]4[C@H](O)C(C)=C[C@@H](C(=O)O1)[C@]34O)O2` showed a melting point of 214 °C.
Take `Ic1ccc2c(c1)Oc1ccccc1O2`: the log10 vapour pressure (mmHg) is -4.5 and the melting point turned out to be 95 °C.
For the molecule `COC(C)(C)C`, the boiling point was found to be 55.2 °C, the log10 Henry constant (atm·m³/mol) is -3.23, the log10 Koa was 2.58 and the log10 vapour pressure (mmHg) came to 2.4. Besides, the melting point was -109 °C and the ready biodegradability result is given as “not readily biodegradable”.
For `CCCOC(=O)CC`, the boiling point turned out to be 122 °C, the log10 vapour pressure (mmHg) came to 1.14 and the melting point was -75.9 °C.
Regarding `C1CCCCCCCCC1`, the boiling point was 202 °C, the log10 vapour pressure (mmHg) was -0.252 and the melting point stood at 10 °C.
Consider `CCC(C)C(C)C(C)=O` (stereo unspecified), for which the boiling point is 158 °C.
Still for that read-out and setting: the same measure for `CCOC(=O)CCCC(C)=O`: 222 °C.
The molecule `C[C@]12CC[C@H](O[C@@H]3O[C@H](CO[C@@H]4O[C@H](CO)[C@@H](O)[C@H](O)[C@H]4O)[C@@H](O)[C@H](O)[C@H]3O)C[C@@H]1CC[C@@H]1[C@@H]2CC[C@]2(C)[C@@H](C3=CC(=O)OC3)CC[C@]12O` gave a melting point of 269 °C.
In the case of `Cc1cc(O)c(C)c(C)c1C`, the boiling point turned out to be 266 °C and the melting point came out at 85.3 °C.
Take `COc1ccccc1OCC(O)COC(N)=O` (stereo unspecified): the melting point stood at 93 °C and the ready biodegradability result is on record as “not readily biodegradable”.
With `C=C1C/C(=C/C)C(=O)O[C@@H]2CCN3CC=C(COC(=O)[C@]1(C)O)[C@H]23`, the melting point amounted to 218 °C.
The same measure, in the same setting: the same measure for `COc1ccc2c3c1O[C@H]1[C@@H](O)C=C[C@H]4[C@@H](C2)N(C)CC[C@@]341.Cl`: 280 °C.
The same measure, in the same setting: under `NS(=O)(=O)c1cc(Cl)c(Cl)c(S(N)(=O)=O)c1` stands 229 °C; under `C=CC1(C)CC(OC(=O)CO)C2(C)C(C)CCC3(CCC(=O)C32)C(C)C1O` (stereo unspecified), 170 °C.
As for `C[C@@H](O)C(C)(C)O`, the boiling point was 175 °C.
`CC1=NOC(=O)/C1=N\Nc1ccccc1Cl` had a melting point of 168 °C.
Consider `Clc1cc(Cl)cc(C2(CC(Cl)(Cl)Cl)CO2)c1` (stereo unspecified), for which the log10 Koc (L/kg) was 3.75 and the melting point stood at 42.8 °C.
In turn, `CC(C)(C)c1ccccc1N` showed a boiling point of 234 °C.
Molecule `O=C1CN=C(c2ccccc2)c2cc(Cl)ccc2N1CC1CC1` registered a melting point of 146 °C.
Regarding `CC(C)(c1ccccc1)c1ccc(O)cc1`, the boiling point came to 335 °C, the log10 vapour pressure (mmHg) was -4.23, the melting point stood at 75 °C and the ready biodegradability result is given as “not readily biodegradable”.
With `O=C1C(Cl)=CC(=NCl)C=C1Cl`, the melting point turned out to be 66 °C.
As to `CC(O)CN(C)C` (stereo unspecified), the boiling point was found to be 124 °C and the melting point was 124 °C.
On to `CCCCCCCCCCS`, for which the boiling point is 241 °C, the log10 vapour pressure (mmHg) was -1.44 and the melting point is -26 °C.
Molecule `CNc1ccc(C)cc1` displayed a boiling point of 210 °C.
In the case of `C=C(Cl)C#N`, the boiling point was 88.5 °C and the melting point was -65 °C.
`OCCS` gave a boiling point of 158 °C and a log10 vapour pressure (mmHg) of 0.244.
The corresponding values for `O=C(Cl)OCCOCCOC(=O)Cl` are 229 °C and -2.83.
For the molecule `CC1CC(C)C(C)C1` (stereo unspecified), the boiling point turned out to be 117 °C and the melting point was -132 °C.
`CCN(CC)CC(=O)OCC(=O)[C@@]1(O)CC[C@H]2[C@@H]3CCC4=CC(=O)C=C[C@]4(C)[C@H]3[C@@H](O)C[C@@]21C`: the melting point stood at 176 °C.
As to `CCC(=O)O[C@](Cc1ccccc1)(c1ccccc1)[C@H](C)CN(C)C`, the melting point was 75.5 °C.
Take `N#Cc1c(F)c(F)c(F)c(F)c1C#N`: the melting point is 83 °C.

Staying with this data set, now noted: fish.
As for `FC(F)(F)c1ccccc1`, the log10 BCF amounted to 1.65 and the log10 biotransformation half-life (days) is -0.48.
`N#CCCNCCC#N` registered a log10 BCF of 0.08.
As for `COC(C)(C)C`, the log10 BCF is 0.18 and the log10 biotransformation half-life (days) was -0.88.
The molecule `Clc1cc(-c2c(Cl)c(Cl)c(Cl)c(Cl)c2Cl)cc(Cl)c1Cl` gave a log10 biotransformation half-life (days) of 2.65.
